# Values quoted from earlier work as cited in US12156855B2, “Infusion dosage form of norepinephrine” (Sun Pharmaceutical Industries Limited, priority 2019, dated 2024).
SMILES,"reported toxicity (heart, ZHANG Cui-ying et al)","reported pharmacological action (Hans Aaron Bates, J. Org. Chem. 1983)"
"O=Cc1ccc(O)c(O)c1 [3,4 dihydroxybenzaldehyde, 3,4-dihydroxybenzaldehyde]",toxic to the heart,–
"Oc1cc2c(cc1O)C(O)CNC2 (centres unmarked) [impurity of Formula I, 1,2,3,4-tetrahydroisoquinoline-4,6,7-triol]",–,acts as false neurotransmitter
